This is an account of results in patent publication US11298390B2, “Total flavonoids extract of Gynura formosana Kitam., preparation method therefor and use thereof for treating hyperuricemia” (ZHANGZHOU PIEN TZE HUANG PHARMACEUTICAL CO., LTD., priority 2017, dated 2022).

Test [1] deals with mouse model of hyperuricemia. Put plainly: Uric acid level in serum of hyperuricemia model mice. Type of test: in vivo, Kunming mice. As to conditions: xanthine i.p. hyperuricemia mice, dose 0.0002 g/10 g, once daily 11 days, mean ± SD. As for the experimental part:
(§1) The mouse model of hyperuricemia was established by intraperitoneal injection of xanthine to increase the content of uric acid precursor in the body and thus to increase the generation of uric acid. The mouse model of hyperuricemia was administered via gavage with the total flavonoid extract from Gynura formosana Kitam. The inhibition rates of uric acid and […] in serum of the mouse and the inhibition rate of the activity of xanthine oxidase in the liver of the mouse were recorded to study the effect of the total flavonoid extract on symptoms of gout caused by hyperuricemia.
(§2) The high, medium and low dose groups of the total flavonoid extract were administered via gavage with an aqueous solution of total flavonoid extract from Gynura formosana Kitam. at a dose of 24 mg/10 mL, 12 mg/10 mL, 6 mg/10 mL, respectively. The model group was administered an equal-volume of saline. All of the drugs were administered once daily for continuous 11 days.
(§3) After 1 hour at last administration, the mice received 10% xanthine dissolved in 0.8% CMC-Na via intraperitoneal injection. After 0.5 hours of modeling, the mice were sacrificed and blood was taken from eyeballs. Then the mice were dissected immediately and livers were taken and stored at a low temperature. […]
(§4) The index was calculated by referring to the instructions. […]

Test [2] deals with mouse model of hyperuricemia. The test can be described thus: Creatinine level in serum of hyperuricemia model mice. It counts as in vivo, Kunming mice. Particulars: dose 0.0002 g/10 g, once daily 11 days, mean ± SD. As for the experimental part:
as §1, §2, §3, §4

On to `Oc1ncnc2[nH]ncc12` [allopurinol], for which, in test [1], the “Uric Acid” value was 22.71 ± 0.27 mg/L. This compound gave a Creatinine in test [2] of 23 ± 1 µM.
